Consider 13 compounds from patent publication US20110319392A1, “Thiazole Sulfonamide And Oxazole Sulfonamide Kinase Inhibitors” (priority 2009, published 2011).

The test system of test [1] is Colo205 tumor cells. Nature of the test: Cell growth inhibition assay (CellTiter-Glo), Colo205. It counts as cell-based, Human. The note with it: Homo sapiens, COLO 205, 72 h; 3 days incubation. In outline:
(§1)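 Cells plated at 500 cells/well in their growth media, dosed next day with nine-step 1:3 compound dilutions (final DMSO 0.2%), then incubated 3 days at 37° C, 5% CO2. Total ATP read by CellTiter-Glo luminescence as a surrogate for cell number; IC50 interpolated from 4-parameter fit versus DMSO controls.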
(Cellular ATP, detected with luciferase, serves as a proxy for viable cell number.)

Test [2] relates to HT-29 tumor cells. Nature of the test: Cell growth inhibition assay (CellTiter-Glo), HT-29. It counts as cell-based, Human. Conditions: Homo sapiens. The gist of the method: as §1
Test [3] has as its system A375P F11s tumor cells. Nature of the test: Cell growth inhibition assay (CellTiter-Glo), A375P F11s. It counts as cell-based, Human. The note with it: for IC50: Homo sapiens. In outline:
as §1

The target of test [4] is B-Raf (Homo sapiens, UniProt P15056). Nature of the test: B-Raf Accelerated MEK ATPase assay (BRAMA), Method A or B. Conditions: Method B: final MEK 150 nM, single end point read. It counts as biochemical. The gist of the method: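 Activated Raf plus non-phosphorylated MEK drives MEK-mediated ATP hydrolysis; ADP formation coupled via pyruvate kinase/lactate dehydrogenase to NADH oxidation. Method A read kinetically; Method B used 150 nM final MEK and a single end-point read.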

Test [5] has as its system BT474 tumor cells. Nature of the test: Cell growth inhibition assay (CellTiter-Glo), BT474. It counts as cell-based, Human. The note with it: Homo sapiens, BT-474, 72 h, 3 days incubation.
Test [6] has as its system SK-MEL-28 tumor cells. Nature of the test: Cell growth inhibition assay (CellTiter-Glo), SK-MEL-28. It counts as cell-based, Human. Conditions: Homo sapiens, SK-MEL-28, 72 h; 3 days incubation. The gist of the method: as §1
Test [7] concerns SK-MEL-3 tumor cells. Nature of the test: Cell growth inhibition assay (CellTiter-Glo), SK-MEL-3. In kind it is cell-based, Human. Conditions: for IC50: Homo sapiens, SK-MEL3. In outline: as §1
Test [8] concerns HN5 tumor cells. Nature of the test: Cell growth inhibition assay (CellTiter-Glo), HN5. In kind it is cell-based, Human. Conditions: Homo sapiens, 72 h; 3 days incubation. In outline:
as §1

Structures can show the parent of a compound that is named as a salt.

B-Raf, sequence (P15056 whole entry): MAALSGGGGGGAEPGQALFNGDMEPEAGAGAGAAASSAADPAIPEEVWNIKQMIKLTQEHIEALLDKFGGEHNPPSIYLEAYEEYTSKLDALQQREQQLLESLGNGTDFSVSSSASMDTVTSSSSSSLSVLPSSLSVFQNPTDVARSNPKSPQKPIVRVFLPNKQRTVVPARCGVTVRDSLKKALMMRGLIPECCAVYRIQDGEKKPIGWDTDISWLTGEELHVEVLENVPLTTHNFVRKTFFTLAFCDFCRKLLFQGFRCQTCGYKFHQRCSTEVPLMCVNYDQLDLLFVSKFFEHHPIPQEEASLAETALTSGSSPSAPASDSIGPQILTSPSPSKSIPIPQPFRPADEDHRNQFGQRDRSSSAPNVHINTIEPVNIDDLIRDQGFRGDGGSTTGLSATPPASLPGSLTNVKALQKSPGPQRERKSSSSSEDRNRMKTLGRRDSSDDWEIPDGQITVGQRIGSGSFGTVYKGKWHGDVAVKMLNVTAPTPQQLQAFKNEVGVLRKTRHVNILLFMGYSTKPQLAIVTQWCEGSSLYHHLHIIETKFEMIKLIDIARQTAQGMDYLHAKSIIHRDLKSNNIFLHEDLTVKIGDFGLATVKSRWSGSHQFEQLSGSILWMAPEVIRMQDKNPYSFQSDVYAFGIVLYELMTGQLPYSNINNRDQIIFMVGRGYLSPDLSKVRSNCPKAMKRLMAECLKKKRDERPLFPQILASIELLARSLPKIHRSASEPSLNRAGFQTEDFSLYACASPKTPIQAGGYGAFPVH

Take `CN(C)c1nc(-c2ccc(F)c(NS(=O)(=O)c3c(F)cccc3F)c2)c(-c2ccnc(Nc3ccc(N4CCOCC4)nc3)n2)s1` [Example 27, N-{5-[2-(Dimethylamino)-5-(2-{[6-(4-morpholinyl)-3-pyridinyl]amino}-4-pyrimidinyl)-1,3-thiazol-4-yl]-2-fluorophenyl}-2,6-difluorobenzenesulfonamide]: the IC50 (as a rule, the point on the concentration scale where inhibition reaches its midpoint) is 100 to 1000 nM in test [1]; 100 to 1000 nM in test [2]; < 100 nM in test [3]; < 100 nM in test [4]; > 1000 nM in test [5]; 100 to 1000 nM in test [6]. Moreover, the IC50 in test [7] is < 100 nM; in test [8] it was > 1000 nM.

As for `Cc1cc(N2CCOCC2)ncc1Nc1nccc(-c2sc(N3CCCC3)nc2-c2cccc(NS(=O)(=O)c3c(F)cccc3F)c2)n1` [Example 124], the half-maximal inhibitory concentration (IC50) is 100 to 1000 nM in test [1]; > 1000 nM in test [2]; < 100 nM in test [4]; > 1000 nM in test [5]; 100 to 1000 nM in test [6]; > 1000 nM in test [8]. The “Activity in A375P F11s Tumor Cells” value in test [3] is reported as “+ (activity of >1 μM in A375P F11s tumor cells)”. In test [7], the “Activity in SK-MEL-3 Tumor Cells” value is “+ (activity of >1 μM in SK-MEL-3 tumor cells)”.

Consider `CC(C)c1nc(-c2cccc(NS(=O)(=O)c3cccs3)c2)c(-c2ccnc(Nc3ccc(N4CCOCC4)nc3)n2)s1` [Example 51], for which the IC50 was < 100 nM in test [1]; < 100 nM in test [2]; < 100 nM in test [3]; < 100 nM in test [4]; > 1000 nM in test [5]; < 100 nM in test [6]. In addition, the IC50 in test [7] is < 100 nM; in test [8] it was 100 to 1000 nM.

As for `CC(C)(C)c1nc(-c2ccc(F)c(NS(=O)(=O)c3c(F)cccc3F)c2)c(-c2ccnc(Nc3ccc(N4CCOCC4)nc3)n2)s1` [Example 28, N-{5-[2-(1,1-Dimethylethyl)-5-(2-{[[6-(4-morpholinyl)-3-pyridinyl]amino}-4-pyrimidinyl)-1,3-thiazol-4-yl]-2-fluorophenyl]-2,6-difluorobenzenesulfonamide hydrochloride], the IC50 is < 100 nM in test [1]; 100 to 1000 nM in test [2]; < 100 nM in test [3]; < 100 nM in test [4]; > 1000 nM in test [5]; < 100 nM in test [6]. Moreover, the IC50 in test [7] is < 100 nM; in test [8] it was > 1000 nM.

Take `CC(C)(C)c1nc(-c2ccc(F)c(NS(=O)(=O)c3c(F)cccc3F)c2)c(-c2ccnc(Nc3ccc(N4CCN(CCF)CC4)c(F)c3)n2)s1` [Example 99]: the half-inhibitory concentration (IC50) is < 100 nM in test [1]; > 1000 nM in test [2]; 100 to 1000 nM in test [3]; < 100 nM in test [4]; > 1000 nM in test [5]; 100 to 1000 nM in test [6]. Also, the IC50 in test [7] was 100 to 1000 nM; in test [8] it was > 1000 nM.

As to `CC(C)c1nc(-c2cccc(NS(=O)(=O)c3c(F)cccc3F)c2F)c(-c2ccnc(Nc3cnc(N4CCOCC4)c(F)c3)n2)s1` [Example 30, 2,6-Difluoro-N-{2-fluoro-3-[5-(2-{[5-fluoro-6-(4-morpholinyl)-3-pyridinyl]amino}-4-pyrimidinyl)-2-(1-methylethyl)-1,3-thiazol-4-yl]phenyl}benzenesulfonamide], the IC50 in test [1] was < 100 nM; in test [2], 100 to 1000 nM; in test [3] it was < 100 nM; in test [4], < 100 nM; in test [5], > 1000 nM; in test [6], < 100 nM. The IC50 in test [7] and in test [8] was < 100 nM throughout.

As to `O=S(=O)(Nc1cccc(-c2ncsc2-c2ccnc(Nc3ccc(N4CCOCC4)nc3)n2)c1)c1c(F)cccc1F` [Example 162], the IC50 is < 100 nM in test [1]; 100 to 1000 nM in test [2]; < 100 nM in test [3]; < 100 nM in test [4]; > 1000 nM in test [5]; < 100 nM in test [6]. The IC50 was < 100 nM in test [7] and 100 to 1000 nM in test [8].

`COc1cc(N2CCN(CCS(C)(=O)=O)CC2)c(C)cc1Nc1nccc(-c2sc(C(C)(C)C)nc2-c2cccc(NS(=O)(=O)c3c(F)cccc3F)c2)n1` [Example 120]: the IC50 was < 100 nM in test [1]; 100 to 1000 nM in test [2]; 100 to 1000 nM in test [3]; < 100 nM in test [4]; > 1000 nM in test [5]; 100 to 1000 nM in test [6]. The IC50 was < 100 nM in test [7] and > 1000 nM in test [8].

`CC(C)c1nc(-c2ccc(F)c(NS(=O)(=O)c3c(F)cccc3F)c2)c(-c2ccnc(Nc3ccc(N4CCN(CCF)CC4)c(F)c3)n2)s1` [Example 25]: the IC50 in test [1] was < 100 nM; in test [2] it was 100 to 1000 nM; in test [3], 100 to 1000 nM; in test [4], < 100 nM; in test [5], > 1000 nM; in test [6], 100 to 1000 nM. Also, the IC50 in test [7] is 100 to 1000 nM; in test [8] it was > 1000 nM.

With `CC(C)c1nc(-c2cccc(NS(=O)(=O)c3cccnc3)c2)c(-c2ccnc(Nc3ccc(N4CCOCC4)nc3)n2)s1` [Example 52], the IC50 in test [1] is < 100 nM; in test [2], < 100 nM; in test [3] it was < 100 nM; in test [4], < 100 nM; in test [5], > 1000 nM; in test [6], < 100 nM. In addition, the IC50 in test [7] was < 100 nM; in test [8], 100 to 1000 nM.

With `CC(C)c1nc(-c2cc(F)c(F)c(NS(=O)(=O)c3cccc(F)c3)c2)c(-c2ccnc(Nc3cnc(N4CCOCC4)c(F)c3)n2)s1` [Example 31, N-{2,3-Difluoro-5-[5-(2-{[5-fluoro-6-(4-morpholinyl)-3-pyridinyl]amino}-4-pyrimidinyl)-2-(1-methylethyl)-1,3-thiazol-4-yl]phenyl}-3-fluorobenzenesulfonamide], the IC50 in test [1] is 100 to 1000 nM; in test [2] it was < 100 nM; in test [3], 100 to 1000 nM; in test [4], < 100 nM; in test [5], > 1000 nM; in test [6] it was 100 to 1000 nM. Besides, the half-maximal inhibitory concentration (IC50) in test [7] is 100 to 1000 nM; in test [8] it was > 1000 nM.

In the case of `CC(=O)N1CCN(c2ccc(Nc3nccc(-c4sc(C(C)C)nc4-c4cccc(NS(=O)(=O)c5ccc(F)cc5)c4)n3)cn2)CC1` [Example 10, N-{3-[5-(2-{[6-(4-Acetyl-1-piperazinyl)-3-pyridinyl]amino}-4-pyrimidinyl)-2-(1-methylethyl)-1,3-thiazol-4-yl]phenyl}-4-fluorobenzenesulfonamide], the IC50 was < 100 nM in test [1]; 100 to 1000 nM in test [2]; < 100 nM in test [3]; < 100 nM in test [4]; > 1000 nM in test [5]; < 100 nM in test [6]. Moreover, the results for the IC50 in test [7] and in test [8] were 100 to 1000 nM and > 1000 nM, respectively.

As for `CN(C)c1nc(-c2ccc(F)c(NS(=O)(=O)c3c(F)cccc3F)c2)c(-c2ccnc(Nc3ccc(N4CCN(S(C)(=O)=O)CC4)nc3)n2)s1` [Example 112], the IC50 is 100 to 1000 nM in test [1]; 100 to 1000 nM in test [2]; 100 to 1000 nM in test [3]; < 100 nM in test [4]; > 1000 nM in test [5]; 100 to 1000 nM in test [6]. For the same compound, the IC50 in test [7] is 100 to 1000 nM; in test [8] it was > 1000 nM.
